IC50 and inhibition data for 42 molecules are collected here from patent publication US8575156B2, “Cyclic inhibitors of 11β-hydroxysteroid dehydrogenase 1” (Vitae Pharmaceuticals, Inc., priority 2007, dated 2013).

The assay concerns the target 11β-HSD1 (Homo sapiens, UniProt P28845). The assay can be described thus: biochemical. The conditions noted are these: for IC50: IC50 Range, Biological Test Example 1, microsomes from CHO cells overexpressing human 11β-HSD1; for inhibition at 0.1111 µM: read-out: Average % inhibition at 111.1 nM, Biological Test Example 1, 111.1 nM compound; for inhibition at 0.1 µM: read-out: Average % inhibition at 100 nM, Biological Test Example 1, 100 nM compound.

11β-HSD1, sequence (P28845 whole entry): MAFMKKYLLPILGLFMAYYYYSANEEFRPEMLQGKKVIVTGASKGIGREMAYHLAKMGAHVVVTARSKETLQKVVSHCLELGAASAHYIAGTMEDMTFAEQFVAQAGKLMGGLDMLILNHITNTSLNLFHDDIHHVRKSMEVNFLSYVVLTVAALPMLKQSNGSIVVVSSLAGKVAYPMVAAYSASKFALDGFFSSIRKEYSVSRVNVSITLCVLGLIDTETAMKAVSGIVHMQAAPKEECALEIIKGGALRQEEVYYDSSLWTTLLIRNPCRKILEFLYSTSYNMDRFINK

Broadly, the IC50 is the point on the concentration scale where inhibition reaches its midpoint. A word on the inhibition: it is the change of the read-out against control, counted positive when it falls. With `C[C@@H](c1cccc(OCC(=O)N2CCNCC2)c1)N1CCC(C)(c2ccccc2)OC1=O` (mixture of isomers) [EXAMPLE 94, (R/S)-6-methyl-3-((S)-1-(3-(2-oxo-2-(piperazin-1-yl)ethoxy)phenyl)ethyl)-6-phenyl-1,3-oxazinan-2-one], the IC50 lay in the range of 0.1 to 1 µM and the inhibition at 0.1111 µM was found to be 16.2%. Take `C[C@@H](c1cccc(OCC(C)(C)O)c1)N1CCC(C)(c2ccccc2)OC1=O` (mixture of isomers) [EXAMPLE 93]: the IC50 is 0.1 to 1 µM and the inhibition at 0.1111 µM amounted to 45.3%.

Take `C[C@@H](c1ccc(-c2ccc(F)cc2F)cc1)N1CC[C@](CC(O)CO)(c2ccc(F)cc2)OC1=O` (single isomer, unassigned) [EXAMPLE 52 Isomer 1]: the IC50 is below 0.1 µM and the inhibition at 0.1 µM came to 92.8%. On to `C[C@@H](c1ccccc1)N1CCC(C)(c2ccccc2)OC1=O` (single isomer, unassigned) [EXAMPLE 82 Isomer 1], for which the 50% inhibitory concentration (IC50) is below 0.1 µM and the inhibition at 0.1111 µM was determined as 87.6%. In the case of `C[C@H](c1ccccc1)N1CCC(C)(c2ccccc2)OC1=O` (single isomer, unassigned) [EXAMPLE 83 Isomer 1], the IC50 was in the range of 0.1 to 1 µM and the inhibition at 0.1111 µM worked out at 50.3%. As to `COc1cccc([C@H](C)N2CCC(C)(c3ccccc3)OC2=O)c1` (single isomer, unassigned) [EXAMPLE 84 Isomer 1], the IC50 was below 0.1 µM and the inhibition at 0.1111 µM was found to be 74.8%. Taken in the same sequence, the figures for `COc1ccc([C@H](C)N2CCC(C)(c3ccccc3)OC2=O)cc1` (single isomer, unassigned) [EXAMPLE 85 Isomer 1] were below 0.1 µM and 93.1%. Taken in the same sequence, the figures for `Cc1ccccc1C1(C)CCN([C@@H](C)c2ccccc2)C(=O)O1` (single isomer, unassigned) [EXAMPLE 86 Isomer 1] were 0.1 to 1 µM and 43.3%.

Regarding `Cc1cccc(C2(C)CCN([C@@H](C)c3ccccc3)C(=O)O2)c1` (single isomer, unassigned) [EXAMPLE 87 Isomer 1], the IC50 was in the range of 0.1 to 1 µM and the inhibition at 0.1111 µM was found to be 13.3%.

For the molecule `Cc1ccc(C2(C)CCN([C@@H](C)c3ccccc3)C(=O)O2)cc1` (single isomer, unassigned) [EXAMPLE 88 Isomer 1], the IC50 lay in the range of 0.1 to 1 µM and the inhibition at 0.1111 µM was determined as 74.4%. `C=CC[C@]1(c2ccc(F)cc2)CCN([C@@H](C)c2ccccc2)C(=O)O1` (single isomer, unassigned) [EXAMPLE 95 Isomer 1]: the IC50 is below 0.1 µM and the inhibition at 0.1111 µM came out at 91%.

Consider `C[C@@H](c1ccccc1)N1CC[C@@](CCO)(c2ccc(F)cc2)OC1=O` (single isomer, unassigned) [EXAMPLE 97 Isomer 1], for which the IC50 was 0.1 to 1 µM and the inhibition at 0.1111 µM turned out to be 52.8%. As for `C[C@@H](c1ccccc1)N1CC[C@](CCO)(c2ccc(F)cc2)OC1=O` (single isomer, unassigned) [EXAMPLE 97 Isomer 2], the IC50 was below 0.1 µM and the inhibition at 0.1111 µM is 88.2%.

Regarding `C=CC[C@@]1(c2ccc(F)cc2)CCN([C@@H](C)c2ccc(Br)cc2)C(=O)O1` (single isomer, unassigned) [EXAMPLE 110 Isomer 1], the IC50 is below 0.1 µM and the inhibition at 0.1 µM stood at 90.5%. Turning to `C=CC[C@]1(c2ccc(F)cc2)CCN([C@@H](C)c2ccc(Br)cc2)C(=O)O1` (single isomer, unassigned) [EXAMPLE 110 Isomer 2], the IC50 was below 0.1 µM, the inhibition at 0.1 µM came out at 96.6% and the inhibition at 0.1111 µM turned out to be 95%.

Regarding `C=CC[C@@]1(c2ccc(F)cc2)CCN([C@@H](C)c2ccc(-c3ccc(F)cc3F)cc2)C(=O)O1` (single isomer, unassigned) [EXAMPLE 111 Isomer 1], the IC50 is below 0.1 µM and the inhibition at 0.1111 µM was 90.9%.

With `C=CC[C@]1(c2ccc(F)cc2)CCN([C@@H](C)c2ccc(-c3ccc(F)cc3F)cc2)C(=O)O1` (single isomer, unassigned) [EXAMPLE 111 Isomer 2], the 50% inhibitory concentration (IC50) is below 0.1 µM and the inhibition at 0.1111 µM came out at 58.9%.

In the case of `C=CC1(c2ccc(F)cc2)CCN([C@@H](C)c2ccccc2)C(=O)O1` (single isomer, unassigned) [EXAMPLE 113 Isomer 1], the IC50 was below 0.1 µM and the inhibition at 0.1111 µM amounted to 83.2%.

Consider `C=CCC1(c2ccc(F)cc2)CCN([C@@H](CC)c2ccc(Br)cc2)C(=O)O1` (single isomer, unassigned) [EXAMPLE 130 Isomer 1], for which the IC50 was below 0.1 µM and the inhibition at 0.1 µM amounted to 92.2%. On to `CC(O)C[C@]1(c2ccc(F)cc2)CCN([C@@H](C)c2ccc(-c3ccc(F)cc3F)cc2)C(=O)O1` (single isomer, unassigned) [EXAMPLE 137 Isomer 1], for which the IC50 was below 0.1 µM. Turning to `CC[C@@H](c1ccc(Br)cc1)N1CCC(CCO)(c2ccc(F)cc2)OC1=O` (single isomer, unassigned) [EXAMPLE 143 Isomer 1], the half-maximal inhibitory concentration (IC50) was below 0.1 µM and the inhibition at 0.1111 µM came to 54.4%. Take `C[C@@H](c1ccc(Br)cc1)N1CC[C@](CC(O)CO)(c2ccc(F)cc2)OC1=O` (single isomer, unassigned) [EXAMPLE 144 Isomer 1]: the IC50 was below 0.1 µM and the inhibition at 0.1111 µM worked out at 90.6%. Turning to `C=CCC1(c2cccs2)CCN([C@@H](C)c2ccc(Br)cc2)C(=O)O1` (single isomer, unassigned) [EXAMPLE 157 Isomer 1], the IC50 was below 0.1 µM and the inhibition at 0.1 µM came to 97.4%. `C=CCC1(c2cccs2)CCN([C@@H](C)c2ccc(-c3ccc(F)cc3)cc2)C(=O)O1` (single isomer, unassigned) [EXAMPLE 160 Isomer 1]: the IC50 was below 0.1 µM and the inhibition at 0.1111 µM came out at 93.5%. In the case of `CC1CC(CCO)(c2ccc(F)cc2)OC(=O)N1[C@@H](C)c1ccc(Br)cc1` (single isomer, unassigned) [EXAMPLE 163 Isomer 1], the IC50 was below 0.1 µM and the inhibition at 0.1111 µM turned out to be 66.8%. On to `CC(O)C[C@@]1(c2cccs2)CCN([C@@H](C)c2ccc(-c3ccc(F)cc3)cc2)C(=O)O1` (single isomer, unassigned) [EXAMPLE 167 Isomer 1], for which the IC50 was below 0.1 µM, the inhibition at 0.1 µM is 73.7% and the inhibition at 0.1111 µM is 79%. Regarding `C[C@@H](c1ccc(-c2ccc(F)cc2)cc1)N1CC[C@](CC(O)CO)(c2ccccc2)OC1=O` (single isomer, unassigned) [EXAMPLE 168 Isomer 1], the IC50 was below 0.1 µM and the inhibition at 0.1 µM came out at 97.2%.

Consider `C[C@@H](c1ccc(-c2ccc(F)cc2F)cc1)N1CC[C@](CC(O)CO)(c2ccccc2)OC1=O` (single isomer, unassigned) [EXAMPLE 173 Isomer 1], for which the IC50 was below 0.1 µM and the inhibition at 0.1 µM is 96.7%. On the same counts, the results for `C=CCC1(c2ccc(F)cc2)CCN([C@@H](C)c2ccc(C)cc2)C(=O)O1` (single isomer, unassigned) [EXAMPLE 189 Isomer 1] are below 0.1 µM and 95.2%.

`C=CCC1(c2ccc(F)cc2)CCN([C@@H](C)c2ccc(OC)cc2)C(=O)O1` (single isomer, unassigned) [EXAMPLE 193 Isomer 1] had an IC50 below 0.1 µM. For `C=CCC1(c2ccc(F)cc2)CCN([C@@H](C)c2ccc(Cl)cc2)C(=O)O1` (single isomer, unassigned) [EXAMPLE 196 Isomer 1], the IC50 was below 0.1 µM and the inhibition at 0.1 µM turned out to be 101%. Taken in the same sequence, the figures for `C[C@@H](C1CCCCC1)N1CC[C@](CC(O)CO)(c2ccc(F)cc2)OC1=O` (single isomer, unassigned) [EXAMPLE 197 Isomer 1] were below 0.1 µM and 90.4%.

`CC(C)C1(CCCO)CCN([C@@H](C)c2ccc(Br)cc2)C(=O)O1` (single isomer, unassigned) [EXAMPLE 200 Isomer 1]: the IC50 was below 0.1 µM.

As for `CC(O)C[C@]1(c2ccc(F)cc2)CCN([C@@H](C)c2ccc(Cl)cc2)C(=O)O1` (single isomer, unassigned) [EXAMPLE 203 Isomer 1], the IC50 was below 0.1 µM and the inhibition at 0.1 µM stood at 88.6%.

For the molecule `COc1ccc([C@H](C)N2CC[C@](CC(O)CO)(c3ccc(F)cc3)OC2=O)cc1` (single isomer, unassigned) [EXAMPLE 206 Isomer 1], the IC50 was below 0.1 µM and the inhibition at 0.1 µM came out at 90.3%. Taken in the same sequence, the figures for `CC(C)C1(CCCO)CCN([C@@H](C)c2ccc(-c3ccc(F)cc3F)cc2)C(=O)O1` (single isomer, unassigned) [EXAMPLE 212 Isomer 1] were below 0.1 µM and 96.8%. In the case of `C[C@@H](c1ccc(-c2ccc(F)cc2)cc1)N1CC[C@](CCO)(c2cccs2)OC1=O` (single isomer, unassigned) [EXAMPLE 218 Isomer 1], the IC50 is below 0.1 µM and the inhibition at 0.1 µM is 97.4%.

Take `C[C@@H](c1ccc(-c2ccc(F)cc2)cc1)N1CC[C@@](CCO)(c2cccs2)OC1=O` (single isomer, unassigned) [EXAMPLE 218 Isomer 2]: the IC50 is below 0.1 µM and the inhibition at 0.1 µM stood at 60.3%. Taken in the same sequence, the figures for `CC(O)C[C@]1(c2ccccc2)CCN([C@@H](C)c2ccc(-c3ccc(F)cc3)cc2)C(=O)O1` (single isomer, unassigned) [EXAMPLE 224 Isomer 1] were below 0.1 µM and 100%. As for `C[C@@H](c1ccc(Br)cc1)N1CCC(CCCO)(c2ccc(F)cc2)OC1=O` (single isomer, unassigned) [EXAMPLE 227 Isomer 1], the IC50 was below 0.1 µM. For the molecule `CC[C@@H](c1ccc(Br)cc1)N1CC[C@](CC(O)CO)(c2ccccc2)OC1=O` (single isomer, unassigned) [EXAMPLE 239 Isomer 1], the IC50 is below 0.1 µM and the inhibition at 0.1 µM is 91.5%. On the same counts, the results for `CC[C@@H](c1ccc(Br)cc1)N1CC[C@](CC(O)CO)(c2ccc(F)cc2)OC1=O` (single isomer, unassigned) [EXAMPLE 255 Isomer 1] are below 0.1 µM and 92.5%.
